Results from patent publication USRE37886E1, “1-(1,2-Disubstituted piperidinyl)-4-substituted piperazine derivatives” (Janssen Pharmaceuticals, N.V., priority 1995, dated 2002).

Assays:
[1] = test system: substance-P induced relaxation of the pig coronary arteries; assay: Antagonism of substance-P induced relaxation of the pig coronary arteries; type: cell-based; settings: concentration at which 50% of the response to 10^−9 M substance P was inhibited, 30 minutes incubation, prostaglandin F2a precontracted segments
Description: (§1) The compounds of the present invention are potent inhibitors of neurokinin-mediated effects, in particular those mediated via the NK1 receptor, and may therefore be described as tachykinin antagonists, especially as substance P antagonists, as indicated in vitro by the antagonism of substance P induced relaxation of pig coronary arteries which is described hereinafter. The binding affinity of the present compounds for the human, guinea-pig and gerbil neurokinin receptors may be determined in vitro in a receptor binding test using ^3H-substance-P as radioligand. The subject compounds also show substance-P antagonistic activity in vivo as may be evidenced by, for instance, the antagonism of substance P-induced plasma extravasation in guinea-pigs, or the antagonism of drug-induced emesis in ferrets (Watson et al., Br. J. Pharmacol. 115, 84-94, 1995).
Antagonism of substance-P induced relaxation of the pig coronary arteries
Segments of coronary artieries taken from pigs (killed by injection of an overdose of sodium pentobarbital) were inverted and mounted for recordign of isometric tension in organ baths (volume 20 ml) with the endothelium at the outside. The preparations were bathed in Krebs-Henseleit solution. The solution was kept at 37° C. and gassed with a mixture of O2/CO2 (95/5). After stabilisation of the preparations, prostaglandin F2a (10^−5 M) was administered to induce a contraction. This was repeated until contractivle responses became stable. Then prostaglandin F2a was again administered and substance P(3×10^−10 M and 10^−9 M cumulatively) was added. Substance P induced endothelium dependent relaxations. After washing away the agonists, a known concentratin of a compound of formula (I) was added. After an incubation period of 30 minutes, prostaglandin F2a ([…]) and the same concentrations of sbustance P as described above were again administered in the presence of the compound to be tested. Relaxations caused by substance P were expressed as relaxations under control conditions, and percent inhibition of the response to […] substance P was taken as a measure of the antagonistic activity of the compound to be tested. Table 6 lists the IC50 values (concentration at which 50% of the response to […] substance P was inhibited by the test compound) for the tested compounds.

[2] = test system: substance P induced plasma extravasation; assay: Antagonism of substance P induced plasma extravasation in guinea-pigs; type: in vivo; settings: lowest active dose, female guinea-pigs; for LAD nose: compound 1 hour prior to substance P (2 mg/kg, femoral artery), blue colouring of nose 10 minutes after challenge; for LAD conjunctiva / LAD forepaws / LAD trachea / LAD urinary bladder: compound 1 hour prior to substance P; for LAD conjunctiva: blue colouring of conjunctiva 10 minutes after challenge; for LAD forepaws: blue colouring of forepaws 10 minutes after challenge; for LAD trachea: blue colouring of trachea 30 minutes after challenge; for LAD urinary bladder: blue colouring of urinary bladder 30 minutes after challenge
Description: as §1
Antagonism of substance P induced plasma extravasation in guinea-pigs
Plasma extravasation was induced by injection of substance P (2 mg/kg) in the femoral artery of female guinea-pigs. Evans Blue dye (30 mg/kg) was injected simultaneously. The test compound or solvent was administered 1 hour prior to substance P injection. 10 minutes after challenge, the aminals were checked for blue colouring (a direct measure for plasma extravasation) of the nose, the forepaws, and the conjectiva. 30 minutes after challenge, the animals were sacrificed by CO2 gas inhalation and checked for blue colouring of the trachea and the urinary bladder. […]

Compound: O=C(C(c1ccccc1)N1CCN(C2CCN(C(=O)c3cc(C(F)(F)F)cc(C(F)(F)F)c3)C(Cc3ccccc3)C2)CC1)N1CCCC1 (mixture of isomers) [Compound 46]
- IC50 [1]: 0.42 nM
- LAD nose [2]: 0.63 mg/kg
- LAD conjunctiva [2]: 0.63 mg/kg
- LAD forepaws [2]: 0.63 mg/kg
- LAD trachea [2]: >40 mg/kg
- LAD urinary bladder [2]: 0.63 mg/kg

Compound: O=C(C(c1ccccc1)N1CCN(C2CCN(C(=O)c3cc(C(F)(F)F)cc(C(F)(F)F)c3)C(Cc3ccccc3)C2)CC1)N1CCCC1 (mixture of isomers) [Compound 52]
- IC50 [1]: 1.1 nM
- LAD nose [2]: 0.63 mg/kg
- LAD conjunctiva [2]: 2.50 mg/kg
- LAD forepaws [2]: 0.63 mg/kg
- LAD trachea [2]: 10.0 mg/kg
- LAD urinary bladder [2]: 10.0 mg/kg

Compound: CCOCCn1c(CN2CCN(C3CCN(C(=O)c4cc(C(F)(F)F)cc(C(F)(F)F)c4)C(Cc4ccccc4)C3)CC2)nc2cccnc21 (racemic) [Compound 25]
- IC50 [1]: 0.79 nM
- LAD nose [2]: 2.50 mg/kg
- LAD conjunctiva [2]: 10.0 mg/kg
- LAD forepaws [2]: 2.50 mg/kg
- LAD trachea [2]: >40 mg/kg
- LAD urinary bladder [2]: >40 mg/kg

Compound: O=C(CN1CCN(C2CCN(C(=O)c3cc(C(F)(F)F)cc(C(F)(F)F)c3)C(Cc3ccccc3)C2)CC1)Nc1c(Cl)cccc1Cl (racemic) [Compound 45]
- IC50 [1]: 0.15 nM
- LAD nose [2]: 0.63 mg/kg
- LAD conjunctiva [2]: 0.63 mg/kg
- LAD forepaws [2]: 0.63 mg/kg
- LAD trachea [2]: >40 mg/kg
- LAD urinary bladder [2]: 2.50 mg/kg

Compound: COc1ccccc1N1CCN(C2CCN(C(=O)c3cc(C(F)(F)F)cc(C(F)(F)F)c3)C(Cc3ccccc3)C2)CC1 (racemic) [Compound 56]
- IC50 [1]: 3.25 nM
- LAD nose [2]: 10.0 mg/kg
- LAD conjunctiva [2]: 10.0 mg/kg
- LAD forepaws [2]: 10.0 mg/kg
- LAD trachea [2]: 40.0 mg/kg
- LAD urinary bladder [2]: 2.50 mg/kg

Compound: Cc1cccc(C)c1NC(=O)CN1CCN(C2CCN(C(=O)c3cc(C(F)(F)F)cc(C(F)(F)F)c3)C(Cc3ccccc3)C2)CC1 (racemic) [Compound 59]
- IC50 [1]: 1.2 nM
- LAD nose [2]: 2.50 mg/kg
- LAD conjunctiva [2]: 2.50 mg/kg
- LAD forepaws [2]: 2.50 mg/kg
- LAD trachea [2]: 5.00 mg/kg
- LAD urinary bladder [2]: 5.00 mg/kg

Compound: O=C(O)C=CC(=O)O.O=C(O)C=CC(=O)O.O=C(c1cc(C(F)(F)F)cc(C(F)(F)F)c1)N1CCC(N2CCCN(Cc3ccccc3)CC2)CC1Cc1ccccc1 (racemic) [Compound 68]
- IC50 [1]: 5.88 nM
- LAD nose [2]: 10.0 mg/kg
- LAD conjunctiva [2]: 40.0 mg/kg
- LAD forepaws [2]: 10.0 mg/kg
- LAD trachea [2]: >40 mg/kg
- LAD urinary bladder [2]: >40 mg/kg

Compound: Cc1ncc(Cn2c(N3CCN([C@H]4CCN(C(=O)c5cc(C(F)(F)F)cc(C(F)(F)F)c5)[C@@H](Cc5ccccc5)C4)CC3)nc3ccccc32)o1 (racemic) [Compound 70, (±)-cis-1-[3,5-bis(trifluoromethyl)benzoyl]-4-[4-[1-[(2-methyl-5-oxazolyl)methyl]-1H-benzimidazol-2-yl]-1-piperazinyl]-2-(phenylmethyl)piperidine]
- IC50 ([1]; Sus scrofa, 0.5 h): 0.29 nM
- LAD nose [2]: 10.0 mg/kg
- LAD conjunctiva [2]: 10.0 mg/kg
- LAD forepaws [2]: 10.0 mg/kg
- LAD trachea [2]: 10.0 mg/kg
- LAD urinary bladder [2]: 10.0 mg/kg

Compound: Cc1ncc(Cn2c(N3CCN(C4CCN(C(=O)c5cc(C(F)(F)F)cc(C(F)(F)F)c5)C(Cc5ccccc5)C4)CC3)nc3ccccc32)o1 (racemic) [Compound 85]
- IC50 [1]: 0.15 nM
- LAD nose [2]: 2.50 mg/kg
- LAD conjunctiva [2]: 2.50 mg/kg
- LAD forepaws [2]: 2.50 mg/kg
- LAD trachea [2]: 2.50 mg/kg
- LAD urinary bladder [2]: 10.0 mg/kg

Compound: Cc1cc(C)cc(COC(CN2CCN(C3CCN(C(=O)c4cc(C(F)(F)F)cc(C(F)(F)F)c4)C(Cc4ccccc4)C3)CC2)c2ccccc2)c1 (racemic) [Compound 87]
- IC50 [1]: 1.9 nM
- LAD nose [2]: 10.0 mg/kg
- LAD conjunctiva [2]: 10.0 mg/kg
- LAD forepaws [2]: 10.0 mg/kg
- LAD trachea [2]: 10.0 mg/kg
- LAD urinary bladder [2]: >40 mg/kg

Compound: Cc1cccc(C)c1NC(=O)C(c1ccccc1)N1CCN(C2CCN(C(=O)c3cc(C(F)(F)F)cc(C(F)(F)F)c3)C(Cc3ccccc3)C2)CC1 (racemic) [Compound 94]
- IC50 [1]: 0.42 nM
- LAD nose [2]: 2.50 mg/kg
- LAD conjunctiva [2]: 2.50 mg/kg
- LAD forepaws [2]: 2.50 mg/kg
- LAD trachea [2]: 10.0 mg/kg
- LAD urinary bladder [2]: 10.0 mg/kg

Compound: O=C(CN1CCN(C2CCN(C(=O)c3cc(C(F)(F)F)cc(C(F)(F)F)c3)C(Cc3ccccc3)C2)CC1)N1CCCc2ccccc21 (racemic) [Compound 101]
- IC50 [1]: 0.75 nM
- LAD nose [2]: 10.0 mg/kg
- LAD conjunctiva [2]: 10.0 mg/kg
- LAD forepaws [2]: 10.0 mg/kg
- LAD trachea [2]: >40 mg/kg
- LAD urinary bladder [2]: >40 mg/kg

Compound: Cc1cccc(C)c1NC(=O)CCN1CCN(C2CCN(C(=O)c3cc(C(F)(F)F)cc(C(F)(F)F)c3)C(Cc3ccccc3)C2)CC1 (racemic) [Compound 105]
- IC50 [1]: 1.05 nM
- LAD nose [2]: 2.50 mg/kg
- LAD conjunctiva [2]: 2.50 mg/kg
- LAD forepaws [2]: 2.50 mg/kg
- LAD trachea [2]: >40 mg/kg
- LAD urinary bladder [2]: >40 mg/kg

Compound: O=C(CN1CCN(C2CCN(C(=O)c3cc(C(F)(F)F)cc(C(F)(F)F)c3)C(Cc3ccccc3)C2)CC1)N1CCc2ccccc21 (racemic) [Compound 107]
- IC50 [1]: 0.96 nM
- LAD nose [2]: 2.50 mg/kg
- LAD conjunctiva [2]: 2.50 mg/kg
- LAD forepaws [2]: 2.50 mg/kg
- LAD trachea [2]: 2.50 mg/kg
- LAD urinary bladder [2]: 10.0 mg/kg

Compound: Cc1ncc(CN2CCN(C3CCN(C(=O)c4cc(C(F)(F)F)cc(C(F)(F)F)c4)C(Cc4ccccc4)C3)CC2)o1 (racemic) [Compound 119]
- IC50 [1]: 2.81 nM
- LAD nose [2]: 2.50 mg/kg
- LAD conjunctiva [2]: 2.50 mg/kg
- LAD forepaws [2]: 2.50 mg/kg
- LAD trachea [2]: 10.0 mg/kg
- LAD urinary bladder [2]: >40 mg/kg

Compound: O=C(c1cc(C(F)(F)F)cc(C(F)(F)F)c1)N1CCC(N2CCN(CC=Cc3ccccc3)CC2)CC1Cc1ccccc1 (centres unmarked) [Compound 28]
- IC50 [1]: 13.3 nM

Compound: O=C(c1cc(C(F)(F)F)cc(C(F)(F)F)c1)N1CCC(N2CCN(CC=Cc3ccccc3)CC2)CC1Cc1ccccc1 (centres unmarked) [Compound 29]
- IC50 [1]: 0.45 nM

Compound: O=C(c1cc(C(F)(F)F)cc(C(F)(F)F)c1)N1CCC(N2CCN(C(c3ccc(F)cc3)c3ccc(F)cc3)CC2)CC1Cc1ccccc1 (centres unmarked) [Compound 35]
- IC50 [1]: 17 nM

Compound: O=C(c1cc(C(F)(F)F)cc(C(F)(F)F)c1)N1CCC(N2CCN(C(c3ccc(F)cc3)c3ccc(F)cc3)CC2)CC1Cc1ccccc1 (centres unmarked) [Compound 36]
- IC50 [1]: 2.31 nM

Compound: O=C(CN1CCN(C2CCN(C(=O)c3cc(C(F)(F)F)cc(C(F)(F)F)c3)C(Cc3ccccc3)C2)CC1)Nc1ccccc1 (centres unmarked) [Compound 37]
- IC50 [1]: 9.6 nM

Compound: O=C(c1cc(C(F)(F)F)cc(C(F)(F)F)c1)N1CCC(N2CCN(CCc3ccccc3)CC2)CC1Cc1ccccc1 (centres unmarked) [Compound 44]
- IC50 [1]: 8.34 nM

Compound: COc1ccccc1NC(=O)CN1CCN(C2CCN(C(=O)c3cc(C(F)(F)F)cc(C(F)(F)F)c3)C(Cc3ccccc3)C2)CC1 (centres unmarked) [Compound 51]
- IC50 [1]: 1.35 nM

Compound: O=C(c1cc(C(F)(F)F)cc(C(F)(F)F)c1)N1CCC(N2CCN(C(c3ccccc3)c3ccccc3)CC2)CC1Cc1ccccc1 (centres unmarked) [Compound 55]
- IC50 [1]: 2.8 nM
